Tests used:
[1] = 298.15 K; 101.33 kPa; Liquid; Vibrating tube method
[2] = mn = molality of the nth substance listed, in mol/kg; settings: 298.15 K, 101 kPa, Liquid, Vibrating tube method

CCCCCCCCO [octan-1-ol]
Settings | mass density [kg/m3]
[1] | 822.11

CC(=O)Nc1cccc(C(=O)O)c1 [3-(acetylamino)benzoic acid] + CCCCCCCCO
[2]
Settings | mass density [kg/m3]
m1 = 0.000244 | 822.13
m1 = 0.000488 | 822.14
m1 = 0.000973 | 822.17
m1 = 0.001081 | 822.17
m1 = 0.001283 | 822.18
m1 = 0.001361 | 822.19
m1 = 0.001375 | 822.19
m1 = 0.001452 | 822.19
m1 = 0.001582 | 822.2
m1 = 0.002358 | 822.23
m1 = 0.003857 | 822.28
m1 = 0.006025 | 822.36
m1 = 0.007586 | 822.43
m1 = 0.009397 | 822.51
m1 = 0.0109 | 822.57
m1 = 0.01161 | 822.6
m1 = 0.01355 | 822.68
m1 = 0.01453 | 822.72

CC(=O)Nc1ccccc1C(=O)O [2-acetamidobenzoic acid] + CCCCCCCCO
[2]
Settings | mass density [kg/m3]
m1 = 0.004871 | 822.31
m1 = 0.008993 | 822.47
m1 = 0.01189 | 822.58
m1 = 0.01818 | 822.82
m1 = 0.02358 | 823.02
m1 = 0.03392 | 823.42
m1 = 0.05837 | 824.35
m1 = 0.0873 | 825.4
m1 = 0.1273 | 826.83
m1 = 0.1682 | 828.43

Oc1ccccc1 [phenol] + CCCCCCCCO
[2]
Settings | mass density [kg/m3]
m1 = 0.01293 | 822.32
m1 = 0.0235 | 822.59
m1 = 0.03299 | 822.87
m1 = 0.04712 | 823.32
m1 = 0.06563 | 823.78
m1 = 0.1179 | 825.01
m1 = 0.2355 | 827.82
m1 = 0.2692 | 828.62
m1 = 0.3564 | 831.14
m1 = 0.4787 | 834.18

O=C(O)c1ccccc1 [benzoic acid] + CCCCCCCCO
[2]
Settings | mass density [kg/m3]
m1 = 0.002452 | 822.18
m1 = 0.005198 | 822.27
m1 = 0.01254 | 822.53
m1 = 0.01324 | 822.55
m1 = 0.03589 | 823.34
m1 = 0.06692 | 824.43
m1 = 0.198 | 828.84
m1 = 0.3209 | 832.91
m1 = 0.4227 | 836.12
m1 = 0.5096 | 838.89

CC(=O)Nc1ccccc1 [N-phenylethanamide] + CCCCCCCCO
[2]
Settings | mass density [kg/m3]
m1 = 0.002139 | 822.18
m1 = 0.00565 | 822.29
m1 = 0.01113 | 822.46
m1 = 0.01413 | 822.55
m1 = 0.02434 | 822.84
m1 = 0.02629 | 822.9
m1 = 0.05259 | 823.67
m1 = 0.08132 | 824.49
m1 = 0.1056 | 825.18
m1 = 0.1482 | 826.35
m1 = 0.1847 | 827.37
m1 = 0.2858 | 830.1
m1 = 0.3663 | 832.25

CCOc1ccc(NC(C)=O)cc1 [N-(4-ethoxyphenyl)ethanamide] + CCCCCCCCO
[2]
Settings | mass density [kg/m3]
m1 = 0.00971 | 822.4
m1 = 0.01263 | 822.48
m1 = 0.01969 | 822.67
m1 = 0.0229 | 822.75
m1 = 0.02432 | 822.79
m1 = 0.02706 | 822.86
m1 = 0.03645 | 823.12
m1 = 0.04962 | 823.48
m1 = 0.06288 | 823.85
m1 = 0.08214 | 824.37
m1 = 0.105 | 824.98
m1 = 0.1351 | 825.83
m1 = 0.1591 | 826.63

CC(=O)Nc1ccccc1O [N-(2-hydroxyphenyl)ethanamide] + CCCCCCCCO
[2]
Settings | mass density [kg/m3]
m1 = 0.001728 | 822.19
m1 = 0.002758 | 822.23
m1 = 0.003165 | 822.24
m1 = 0.003211 | 822.24
m1 = 0.004195 | 822.28
m1 = 0.005164 | 822.31
m1 = 0.006563 | 822.36
m1 = 0.01154 | 822.56
m1 = 0.0164 | 822.75
m1 = 0.01909 | 822.86
m1 = 0.02399 | 823.06
m1 = 0.03356 | 823.46

CC(=O)Nc1ccc(O)cc1 [N-acetyl-p-aminophenol] + CCCCCCCCO
[2]
Settings | mass density [kg/m3]
m1 = 0.006684 | 822.49
m1 = 0.009351 | 822.61
m1 = 0.01261 | 822.76
m1 = 0.0141 | 822.83
m1 = 0.01601 | 822.91
m1 = 0.01873 | 823.05
m1 = 0.02173 | 823.19
m1 = 0.02486 | 823.33
m1 = 0.03075 | 823.59
m1 = 0.03578 | 823.8
m1 = 0.04077 | 824.01
m1 = 0.04581 | 824.23
m1 = 0.05103 | 824.46
m1 = 0.05889 | 824.81
m1 = 0.06631 | 825.1
m1 = 0.07665 | 825.5
m1 = 0.08633 | 825.93
m1 = 0.1379 | 828.16

NC(=O)c1ccccc1O [2-hydroxybenzamide] + CCCCCCCCO
[2]
Settings | mass density [kg/m3]
m1 = 0.002458 | 822.19
m1 = 0.003905 | 822.23
m1 = 0.0061 | 822.31
m1 = 0.007816 | 822.37
m1 = 0.01182 | 822.51
m1 = 0.02311 | 822.87
m1 = 0.03084 | 823.13
m1 = 0.03859 | 823.39
m1 = 0.05387 | 823.86
m1 = 0.08947 | 825.16

CC(=O)Nc1cccc(O)c1 [3-acetamidophenol] + CCCCCCCCO
[2]
Settings | mass density [kg/m3]
m1 = 0.002796 | 822.21
m1 = 0.006909 | 822.37
m1 = 0.008394 | 822.43
m1 = 0.01356 | 822.62
m1 = 0.02056 | 822.89
m1 = 0.04126 | 823.67
m1 = 0.08892 | 825.48
m1 = 0.1451 | 827.61
m1 = 0.1875 | 829.24
m1 = 0.2708 | 832.45

NC(=O)c1ccc(O)cc1 [4-hydroxybenzamide] + CCCCCCCCO
[2]
Settings | mass density [kg/m3]
m1 = 0.002127 | 822.18
m1 = 0.005332 | 822.31
m1 = 0.005725 | 822.34
m1 = 0.007571 | 822.43
m1 = 0.01115 | 822.59
m1 = 0.01722 | 822.85
m1 = 0.02131 | 822.99
m1 = 0.02267 | 823.06
m1 = 0.02734 | 823.25
m1 = 0.02874 | 823.32
m1 = 0.038 | 823.71
m1 = 0.05733 | 824.52
m1 = 0.0819 | 825.53
m1 = 0.09825 | 826.23
m1 = 0.1209 | 827.18
m1 = 0.1408 | 828.01
m1 = 0.1856 | 829.93

NC(=O)c1ccccc1 [benzamide] + CCCCCCCCO
[2]
Settings | mass density [kg/m3]
m1 = 0.004751 | 822.25
m1 = 0.009145 | 822.4
m1 = 0.01194 | 822.49
m1 = 0.01802 | 822.68
m1 = 0.02473 | 822.9
m1 = 0.03952 | 823.38
m1 = 0.07569 | 824.52
m1 = 0.108 | 825.55
m1 = 0.1331 | 826.37
m1 = 0.179 | 827.87

CC(=O)Nc1ccc(C(=O)O)cc1 [4-acetamidobenzoic acid] + CCCCCCCCO
[2]
Settings | mass density [kg/m3]
m1 = 0.000708 | 822.14
m1 = 0.00077 | 822.15
m1 = 0.000914 | 822.16
m1 = 0.001192 | 822.17
m1 = 0.001367 | 822.18
m1 = 0.002266 | 822.23
m1 = 0.002865 | 822.26
m1 = 0.002919 | 822.26
m1 = 0.003657 | 822.3
m1 = 0.005744 | 822.42
m1 = 0.01212 | 822.76
m1 = 0.01816 | 823.12
m1 = 0.02407 | 823.47
m1 = 0.0284 | 823.73
m1 = 0.03621 | 824.17

NC(=O)c1cccc(O)c1 [3-hydroxy-benzamide] + CCCCCCCCO
[2]
Settings | mass density [kg/m3]
m1 = 0.001492 | 822.16
m1 = 0.002531 | 822.2
m1 = 0.003737 | 822.25
m1 = 0.006435 | 822.38
m1 = 0.007522 | 822.43
m1 = 0.01163 | 822.62
m1 = 0.02156 | 823.03
m1 = 0.03239 | 823.51
m1 = 0.04091 | 823.88
m1 = 0.05285 | 824.43
m1 = 0.07208 | 825.26
m1 = 0.08749 | 825.95

From the NIST ThermoML archive (doi:10.1016/j.jct.2009.10.002)
